Consider seven compounds from patent US7799753B2, “Bisubstrate inhibitors of protein tyrosine kinases as therapeutic agents” (Board of Governers for Higher Education, priority 2004, dated 2010).

Data set [1] addresses T1, Src (Homo sapiens, UniProt P12931). As to the kind of experiment: Steady-state kinetic radioactive assay with Src (polyE4Y, [γ-32P]ATP), ATP-phosphopeptide conjugates. The format is biochemical. As to the method:
Steady-State Kinetic Assays.
Artificial substrate polyE4Y (average MW: 35 kD) was used for routine kinase activity. The kinase activity of PTKs was first determined using a standard radiometric PTK activity assay. This assay contains polyE4Y as the phosphate accepting substrate, [γ-^32P]-ATP, and MgCl2. After a reaction time of 30 min at 30° C., 35 μl of the reaction mixture was removed and spotted onto a filter paper and placed into warm 5% trichloroacetic acid (TCA). The TCA stops the kinase reaction, precipitates the proteins and polyE4Y onto the filter paper, and washes the un-reacted ATP and others away. After 3 TCA washes for 10 min each, the radioactivity remaining on the filter paper was determined by liquid scintillation counting. The assays were done in duplicates and repeated at least three times. Control reactions lacking polyE4Y were included for each enzyme concentration to correct for any non-polyE4Y specific phosphorylation. […] The inhibitory mechanism was determined based on the effect of the compound on the Km and Vm values Inhibitory constant (Ki) was determined by using Sigma Plot 8.0 Enzyme Kinetics Module.

The target of data set [2] is T1, Src. As to the kind of experiment: Radioactive kinase assay, polyE4Y phosphorylation by Src (peptides, N-heteroaromatics and conjugates). The format is biochemical.
The mark [3] stands for this setting: read-out: IC50, inhibition of polyE4Y phosphorylation by Src.

Each structure is given as a SMILES string. Numbered stars: 1 amine (or outer) side, 2 acyl side, 3 side chain; on linkers, the order of the positions; unused ones are H or OH. Square brackets hold non-standard residues; d marks the D form. Peptide text beside a SMILES is read from it. * marks the point of attachment. X2 = CS(=O)(=O)Nc1ccc(C[C@H](N[*:1])C(=O)[*:2])cc1; Phe(4-NH2) = Nc1ccc(C[C@H](N)C(=O)O)cc1; X1 = Nc1ncnc2c1c(-c1ccccc1)nn2CC(=O)* A value given as a limit tells only on which side of the number the result lay.

T1 sequence (P12931 whole entry, species assumed): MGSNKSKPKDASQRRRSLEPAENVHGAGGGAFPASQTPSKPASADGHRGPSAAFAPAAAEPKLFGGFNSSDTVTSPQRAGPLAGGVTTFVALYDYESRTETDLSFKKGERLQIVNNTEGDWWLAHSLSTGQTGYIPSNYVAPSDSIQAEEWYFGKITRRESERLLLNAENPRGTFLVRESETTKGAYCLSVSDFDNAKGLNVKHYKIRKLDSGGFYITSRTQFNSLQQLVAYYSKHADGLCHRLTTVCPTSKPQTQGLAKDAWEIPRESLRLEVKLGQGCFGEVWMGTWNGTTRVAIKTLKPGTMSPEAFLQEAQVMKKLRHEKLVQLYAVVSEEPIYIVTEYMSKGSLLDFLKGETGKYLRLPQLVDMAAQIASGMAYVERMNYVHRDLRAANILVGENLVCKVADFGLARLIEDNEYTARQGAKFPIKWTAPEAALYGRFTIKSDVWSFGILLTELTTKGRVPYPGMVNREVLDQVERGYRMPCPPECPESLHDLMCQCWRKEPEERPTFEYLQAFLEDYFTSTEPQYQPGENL

In the case of `CC[C@H](C)[C@H](NC(=O)[C@H](CCC(=O)O)NC(=O)[C@H](CCC(=O)O)NC(=O)[C@H](Cc1ccc(OP(=O)(O)O)cc1)NC(=O)CCC(=O)NCCCOCCOCCOCCCNS(=O)(=O)c1ccc(C(=O)OC[C@H]2O[C@@H](n3cnc4c(N)ncnc43)[C@H](O)[C@@H]2O)cc1)C(=O)O` [Compound 9, 4-(sulfamoyl)benzoyladenosine-pYEEI], on Src [1], the IC50 was greater than 300 µM. Besides, the “enhancement of catalytic activity and phosphorylation” value with Src [1] (Src) is “at least 40%”.

As for `CC[C@H](C)[C@H](NC(=O)[C@H](CCC(=O)O)NC(=O)[C@H](CCC(=O)O)NC(=O)[C@H](Cc1ccc(OP(=O)(O)O)cc1)NC(=O)CCC(=O)NCCCOCCOCCOCCCN)C(=O)O` [Compound 16, H2N-1,13-Trioxa-Suc-pTyr-Glu-Glu-Ile-OH], the Ki on Src [1] worked out at 608 µM.

Consider `CC[C@H](C)[C@H](NC(=O)[C@H](Cc1ccc(O)cc1)NC(C)=O)C(=O)N[C@@H](Cc1ccc(O)cc1)C(=O)NCC(=O)N[C@@H](CO)C(=O)N[C@@H](Cc1ccccc1)C(=O)N[C@@H](CCCCN)C(=O)O` [Compound 41, Ac-YIYGSFK, reference compound] (Ac-YIYGSFK-OH; C-terminus assumed), for which the IC50 on Src [2] (setting [3]) worked out at 570 µM.

Turning to `CC[C@H](C)[C@H](NC(=O)[C@H](Cc1ccc(O)cc1)NC(=O)Cn1nc(-c2ccccc2)c2c(N)ncnc21)C(=O)N[C@@H](Cc1ccc(O)cc1)C(=O)NCC(=O)N[C@@H](CO)C(=O)N[C@@H](Cc1ccccc1)C(=O)N[C@@H](CCCCN)C(=O)O` [Compound 43] (X1-YIYGSFK-OH), the IC50 at Src [2] (setting [3]) was 2.7 µM. Consider `CC[C@H](C)[C@H](NC(=O)[C@H](CS)NC(C)=O)C(=O)N[C@@H](Cc1ccc(O)cc1)C(=O)N[C@@H](CCCCN)C(=O)N[C@@H](Cc1ccc(O)cc1)C(=O)N[C@@H](Cc1ccc(N)cc1)C(=O)O` [Compound 68, Ac-CIYKYF(NH2)] (Ac-CIYKY[Phe(4-NH2)]-OH), for which the “Src inhibitory potency in words” value at Src [2] (qualitative, relative to parent or comparator named in the text) is “not active”. Take `CC[C@H](C)[C@H](NC(=O)[C@H](CS)NC(C)=O)C(=O)N[C@@H](Cc1ccc(O)cc1)C(=O)N[C@@H](CCCCN)C(=O)N[C@@H](Cc1ccc(NS(C)(=O)=O)cc1)C(=O)N[C@@H](Cc1ccc(O)cc1)C(=O)O` [Compound 80, Ac-CIYKF(4-NHSO2CH3)Y] (Ac-CIYK[X2]Y-OH): the IC50 at Src [2] was greater than 100 µM. As to `CC[C@H](C)[C@H](NC(=O)[C@@H](N)Cc1ccc(O)cc1)C(=O)N[C@@H](Cc1ccc(O)cc1)C(=O)NCC(=O)N[C@@H](CO)C(=O)N[C@@H](Cc1ccccc1)C(=O)N[C@@H](CCCCN)C(=O)O` [Compound 85, YIYGSFK] (H-YIYGSFK-OH), the IC50 at Src [2] (modified peptide analogs, read-out: IC50 (μM), Src kinase inhibitory potency (Table 1)) was greater than 100 µM.
